This note sets out measurements from US12371428B2 (Exelixis, Inc., priority 2019, dated 2025).

For test [1], the target named is Human Mer (residues R557-E882 with H628Q and R794A) (Homo sapiens, UniProt Q12866). Briefly: Human Mer kinase assay, 33P-phosphoryl transfer radiometric (Example C-1, KinaseProfiler). The format is biochemical. The following applies: protocol of Example C-1 (compounds 21-27, 41-47, 99, 104). How it is done: Kinase activity and compound inhibition were investigated using the ^33P-Phosphoryl transfer radiometric kinase assay, performed using the KinaseProfiler™ service of Eurofins Pharma Discovery Services UK Limited. Dose-response experiments were performed using nine compound concentrations in a 96-well microtiter plate. For each assay, all compounds were prepared to a 50× final assay concentration (50 μM) in 100% DMSO, then diluted in a half-log series, with the final top concentration at 1 μM. This working stock of the compound was added to the assay well as the first component in the reaction, followed by the remaining components as detailed in the following assay protocols below. The positive control wells (100% kinase activity) contain all components of the reaction including 2% DMSO (control for solvent effects), except the compound of interest. Blank wells contain all components of the reaction, with the reference inhibitor, staurosporine. This reference compound was used to abolish kinase activity and generated the 0% kinase activity base-line. IC50 values were calculated by nonlinear regression analysis using the sigmoidal dose-response (variable slope) curve fit on XLFit version 5.3 (ID Business Solutions).
Example C-1: Human Mer (residues R557-E882 with H628Q and R794A, 0.7 nM) was incubated with 8 mM MOPS pH 7.0, 0.2 mM EDTA, 30 mM NaCl, 250 μM […] (SEQ ID NO:2), 10 mM magnesium acetate, and 10 μM [γ-^33P-ATP]. The reaction was initiated by the addition of the Mg/ATP mix. After incubation for 40 minutes at room temperature, the reaction was stopped by the addition of phosphoric acid to a concentration of 0.5%. A reaction aliquot of 10 μL was then spotted onto a P30 filtermat and washed four times for 4 minutes in 0.425% phosphoric acid and once in methanol prior to drying and scintillation counting. Incorporated ^33P was measured using the Wallac Microbeta scintillation counter (Perkin Elmer).

Test [2] concerns the target Human Axl (residues H473-A894 with Q764R) (Homo sapiens (Human), UniProt P30530, Q764R). Briefly: Human AXL kinase assay, 33P-phosphoryl transfer radiometric (Example A-1, KinaseProfiler). The format is biochemical.
Method: The reaction was initiated by the addition of the Mg/ATP mix. […] Incorporated ^33P was measured using the Wallac Microbeta scintillation counter (Perkin Elmer).
Test [3] addresses AXL (phospho-AXL, Gas6-stimulated A-172 glioblastoma cells) (Homo sapiens (Human), UniProt P30530). Briefly: AXL autophosphorylation ELISA in A-172 cells (Example E). The format is cell-based. Conditions: cellular activity; AXL autophosphorylation ELISA in A-172 cells; read-out: Axl IC50. The method in brief:
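Phospho-AXL in lysates was quantified by ELISA, normalised to DMSO (100%) and reference inhibitor (0%) controls. IC50 by 4-parameter logistic fit.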
(In general: An ELISA detects its analyte on a solid surface through an enzyme-linked reagent.)

Test [4] has as its target Human AXL (residues 464-885) (Homo sapiens (Human), UniProt P30530). Briefly: Human AXL kinase assay, HTRF KinEase (Example A-2). The format is biochemical. As for the experimental part:
Kinase activity and compound inhibition were also investigated using the HTRF® KinEase assay (Cisbio Cat #62TKOPEB) per manufacturer's instructions. In short, compounds were delivered in 300 nL volumes at 10 different concentrations in DMSO (3% final) to empty 384-well assay plates (Corning cat #3824). A mixture of enzyme, […] biotynlated peptide substrate, and buffer in 10 μL volume was added. The assay was started upon the addition of ATP (at Km). The 10 μL reaction was incubated at room temperature. The reaction was stopped upon the addition of detection buffer containing streptavidin-XL665 ([…]) and TK antibody-Eu3+(5 L).
Kinase activity normalized to DMSO (100% activity) and reference compound at […] and (0% activity) was calculated using the fluorescence ratio […]. IC50 values were calculated by nonlinear regression analysis using a 4-parameter logistic curve fit in ActivityBase XE (IDBS).
The mixture was added to the pre-plated compounds. […] The reaction was incubated at room temperature for 50 min and stopped upon the addition of SA-XL665 and TK-antibody both diluted in EDTA-containing kinase detection buffer (Cisbio). The kinase activity was calculated as stated above and the IC50 values were reported.
In general terms: TR-FRET usually uses a lanthanide donor and a delayed reading to cut background.

[5] abbreviates: protocol of Example A-2 (other compounds).

AXL (phospho-AXL, Gas6-stimulated A-172 glioblastoma cells), sequence (P30530 26-894): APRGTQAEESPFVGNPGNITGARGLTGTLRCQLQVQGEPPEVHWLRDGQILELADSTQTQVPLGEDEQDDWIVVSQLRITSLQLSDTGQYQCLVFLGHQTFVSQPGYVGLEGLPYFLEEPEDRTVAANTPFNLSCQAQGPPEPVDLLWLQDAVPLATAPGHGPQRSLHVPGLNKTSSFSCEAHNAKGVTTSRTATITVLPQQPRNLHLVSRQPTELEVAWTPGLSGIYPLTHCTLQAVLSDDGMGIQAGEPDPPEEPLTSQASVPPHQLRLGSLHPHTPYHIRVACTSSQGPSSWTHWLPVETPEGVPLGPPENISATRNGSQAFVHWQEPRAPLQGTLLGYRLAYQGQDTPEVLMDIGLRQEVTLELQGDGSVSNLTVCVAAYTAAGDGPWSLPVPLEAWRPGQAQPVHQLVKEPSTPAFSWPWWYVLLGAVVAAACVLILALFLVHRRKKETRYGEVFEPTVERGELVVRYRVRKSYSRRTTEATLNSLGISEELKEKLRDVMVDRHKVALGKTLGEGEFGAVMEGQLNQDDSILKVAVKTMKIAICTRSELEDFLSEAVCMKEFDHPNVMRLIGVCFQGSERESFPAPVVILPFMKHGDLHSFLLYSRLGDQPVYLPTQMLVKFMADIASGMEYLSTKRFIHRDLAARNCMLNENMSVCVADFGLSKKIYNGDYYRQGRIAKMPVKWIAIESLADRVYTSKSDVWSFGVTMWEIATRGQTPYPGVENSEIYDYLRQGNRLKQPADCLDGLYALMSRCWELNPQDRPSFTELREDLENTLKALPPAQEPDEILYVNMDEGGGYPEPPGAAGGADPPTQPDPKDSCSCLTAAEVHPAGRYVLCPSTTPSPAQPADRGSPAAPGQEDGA
Human AXL (residues 464-885), sequence (P30530 473-894): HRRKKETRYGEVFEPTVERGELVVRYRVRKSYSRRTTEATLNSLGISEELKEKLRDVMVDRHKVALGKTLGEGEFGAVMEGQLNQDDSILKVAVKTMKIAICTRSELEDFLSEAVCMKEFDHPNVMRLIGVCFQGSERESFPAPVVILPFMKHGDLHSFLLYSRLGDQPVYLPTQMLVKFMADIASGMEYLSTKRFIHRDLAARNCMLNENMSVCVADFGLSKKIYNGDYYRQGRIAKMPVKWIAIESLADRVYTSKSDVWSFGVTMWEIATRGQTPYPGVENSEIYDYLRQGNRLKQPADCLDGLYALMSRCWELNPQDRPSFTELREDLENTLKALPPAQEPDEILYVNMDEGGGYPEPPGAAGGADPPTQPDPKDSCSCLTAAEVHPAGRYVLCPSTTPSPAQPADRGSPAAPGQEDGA
Human Axl (residues H473-A894 with Q764R), sequence (P30530 473-894 Q764R): as the sequence (P30530 473-894) above, with Q292R counted along it
Human Mer (residues R557-E882 with H628Q and R794A), sequence (Q12866 21-999 limits assumed, stated change not applied): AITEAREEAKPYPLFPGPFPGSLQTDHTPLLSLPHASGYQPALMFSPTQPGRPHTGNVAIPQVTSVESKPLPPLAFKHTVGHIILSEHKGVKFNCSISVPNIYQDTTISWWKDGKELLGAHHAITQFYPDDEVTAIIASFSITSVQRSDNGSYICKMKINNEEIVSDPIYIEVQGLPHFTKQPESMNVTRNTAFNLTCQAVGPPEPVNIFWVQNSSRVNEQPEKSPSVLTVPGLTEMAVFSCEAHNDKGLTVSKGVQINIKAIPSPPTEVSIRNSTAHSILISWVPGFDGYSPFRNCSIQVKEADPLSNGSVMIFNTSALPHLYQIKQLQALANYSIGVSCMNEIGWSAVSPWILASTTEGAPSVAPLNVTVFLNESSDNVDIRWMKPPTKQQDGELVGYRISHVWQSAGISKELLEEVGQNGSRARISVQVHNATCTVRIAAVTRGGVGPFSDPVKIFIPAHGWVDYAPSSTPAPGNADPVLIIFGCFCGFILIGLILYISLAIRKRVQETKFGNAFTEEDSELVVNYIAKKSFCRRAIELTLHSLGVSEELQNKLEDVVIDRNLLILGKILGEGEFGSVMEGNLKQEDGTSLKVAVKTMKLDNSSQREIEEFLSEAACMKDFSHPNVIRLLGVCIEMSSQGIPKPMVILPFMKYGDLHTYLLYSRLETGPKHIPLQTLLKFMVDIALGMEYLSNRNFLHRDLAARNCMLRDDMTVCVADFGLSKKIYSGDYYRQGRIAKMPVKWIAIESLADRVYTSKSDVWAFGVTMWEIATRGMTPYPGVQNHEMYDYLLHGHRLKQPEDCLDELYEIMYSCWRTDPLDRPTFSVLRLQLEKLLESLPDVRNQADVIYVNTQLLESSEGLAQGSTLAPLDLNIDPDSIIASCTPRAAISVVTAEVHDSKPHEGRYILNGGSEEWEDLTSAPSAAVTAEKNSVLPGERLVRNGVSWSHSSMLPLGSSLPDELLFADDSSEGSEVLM

For `COc1cc2nccc(Oc3ccc(NC(=O)c4c[nH]c(=S)n(-c5ccc(F)cc5)c4=O)cc3F)c2nc1OC` [Compound 104, N-[4-[(6,7-Dimethoxy-1,5-naphthyridin-4-yl)oxy]-3-fluorophenyl]-3-(4-fluorophenyl)-4-oxo-2-sulfanylidene-1H-pyrimidine-5-carboxamide], the values for the IC50 in test [1], in test [2] and in test [3] were > 0.3 µM, > 0.3 µM and < 0.1 µM, respectively.
Take `COCCOc1ccc2nccc(Oc3ccc(NC(=O)c4c(C)nc(C)c(-c5ccc(F)cc5)c4O)cc3F)c2n1` [Compound 349, N-[3-fluoro-4-[[6-(2-methoxyethoxy)-1,5-naphthyridin-4-yl]oxy]phenyl]-5-(4-fluorophenyl)-4-hydroxy-2,6-dimethylpyridine-3-carboxamide]: the IC50 in test [4] (setting [5]) and in test [3] was < 0.1 µM throughout.
For `COc1cc2nccc(Oc3ccc(NC(=O)c4c(C)nc(C)c(-c5ccc(F)cc5)c4O)cc3F)c2nc1OC` [Compound 154, N-[4-[(6,7-Dimethoxy-1,5-naphthyridin-4-yl)oxy]-3-fluorophenyl]-5-(4-fluorophenyl)-4-hydroxy-2,6-dimethylpyridine-3-carboxamide], the IC50 in test [4] (setting [5]) and in test [3] was < 0.1 µM each time.
In the case of `COc1cc2ncnc(Oc3ccc(NC(=O)c4c5n(cc(-c6ccc(F)cc6)c4=O)CCC5)cc3F)c2cc1OC` [Compound 406, N-[4-(6,7-dimethoxyquinazolin-4-yl)oxy-3-fluorophenyl]-6-(4-fluorophenyl)-7-oxo-2,3-dihydro-1H-indolizine-8-carboxamide], the half-maximal inhibitory concentration (IC50) in test [4] (setting [5]) and in test [3] was < 0.1 µM in each case.
As for `CNc1nccc2c(Oc3ccc(NC(=O)c4cnc(C)n(-c5ccc(F)cc5)c4=O)cc3)ccnc12` [Compound 543, 1-(4-fluorophenyl)-2-methyl-N-[4-[[8-(methylamino)-1,7-naphthyridin-4-yl)oxy]phenyl]-6-oxopyrimidine-5-carboxamide], the IC50 in test [4] (protocol of Example A-2) and in test [3] was < 0.1 µM in each case.
